pIC50, pKi: −log10 of the molar value. Where a SMILES comes first, the peptide text is derived from it. Bridges are numbered along the chain shown (N, C = ends). [ ]: non-standard residue; d: D form. The star is where a group is joined. Ileψ(thiazoline)Cys = CC[C@H](C)[C@H](N)C1=N[C@H](C(=O)*)CS1; dOrn = NCCC[C@@H](N)C(=O)O
What was measured:
[1] = target: Substance-P receptor (Homo sapiens, UniProt P25103); type: cell membranes, CHO, Membrane; settings: cho; also: in other assays of this panel Not Active means under 50% inhibition at 10 µM
[2] = DRUGMATRIX: GABAA, Chloride Channel, TBOB radioligand binding (ligand: [3H] TBOB); type: cell membranes, Rattus norvegicus, Wistar, Cerebral cortex, Membrane; settings: Not Active = under 50% inhibition at 10 µM
[3] = DRUGMATRIX: Imidazoline I2, Central radioligand binding (ligand: [3H] Idazoxan); type: cell membranes, Rattus norvegicus, Wistar, Cerebral cortex, Membrane; settings: Not Active = under 50% inhibition at 10 µM
[4] = target: Epidermal growth factor receptor (Homo sapiens, UniProt P00533); test: DRUGMATRIX: Protein Tyrosine Kinase, EGF Receptor enzyme inhibition (substrate: Poly(Glu:Tyr)); type: cell-based, Insect cells; settings: insect cells; Not Active = under 50% inhibition at 10 µM
[5] = target: C-C chemokine receptor type 5 (Homo sapiens, UniProt P51681); type: cell membranes, Membrane; settings: hek293; also: in other assays of this panel Not Active means under 50% inhibition at 10 µM
[6] = target: Cannabinoid receptor 1 (Homo sapiens, UniProt P21554); type: cell membranes, Membrane; settings: chem-1; also: in other assays of this panel Not Active means under 50% inhibition at 10 µM
[7] = DRUGMATRIX: Sigma2 radioligand binding (ligand: [3H] Ifenprodil); type: cell membranes, Rattus norvegicus, Wistar, Brain, Membrane; settings: Not Active = under 50% inhibition at 10 µM
[8] = target: Sodium-dependent dopamine transporter (Homo sapiens, UniProt Q01959); test: DRUGMATRIX: Dopamine Transporter radioligand binding (ligand: [125I] RTI-55); type: cell membranes, CHO-K1, Membrane; settings: Not Active = under 50% inhibition at 10 µM; for IC50: cho-k1
[9] = target: Carbonic anhydrase 2 (Homo sapiens, UniProt P00918); test: DRUGMATRIX: Carbonic Anhydrase II enzyme inhibition (substrate: 4-Nitrophenyl acetate (4-NPA)); type: tissue-based, Erythrocyte; settings: erythrocyte; Not Active = under 50% inhibition at 10 µM
[10] = target: T1, Alpha-2A adrenergic receptor (Homo sapiens, UniProt P08913); type: cell membranes, Sf9, Membrane; settings: for IC50: sf9; as to all read-outs here: in other assays of this panel Not Active means under 50% inhibition at 10 µM
T1 sequence (P08913 whole entry): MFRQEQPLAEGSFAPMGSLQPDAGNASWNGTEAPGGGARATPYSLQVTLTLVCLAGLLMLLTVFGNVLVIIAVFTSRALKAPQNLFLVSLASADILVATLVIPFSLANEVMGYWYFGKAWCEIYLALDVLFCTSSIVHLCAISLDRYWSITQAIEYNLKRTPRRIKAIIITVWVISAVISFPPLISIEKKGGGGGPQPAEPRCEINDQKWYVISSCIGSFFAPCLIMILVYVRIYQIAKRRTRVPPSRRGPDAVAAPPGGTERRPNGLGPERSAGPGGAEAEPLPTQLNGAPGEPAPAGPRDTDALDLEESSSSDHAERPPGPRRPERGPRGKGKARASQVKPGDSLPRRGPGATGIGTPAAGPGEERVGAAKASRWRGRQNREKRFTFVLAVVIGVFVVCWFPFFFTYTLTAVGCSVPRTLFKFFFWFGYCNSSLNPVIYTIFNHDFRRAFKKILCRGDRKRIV

[11] = target: T2, Cathepsin G (Homo sapiens, UniProt P08311); type: tissue-based; settings: neutrophil
T2 sequence (P08311 whole entry): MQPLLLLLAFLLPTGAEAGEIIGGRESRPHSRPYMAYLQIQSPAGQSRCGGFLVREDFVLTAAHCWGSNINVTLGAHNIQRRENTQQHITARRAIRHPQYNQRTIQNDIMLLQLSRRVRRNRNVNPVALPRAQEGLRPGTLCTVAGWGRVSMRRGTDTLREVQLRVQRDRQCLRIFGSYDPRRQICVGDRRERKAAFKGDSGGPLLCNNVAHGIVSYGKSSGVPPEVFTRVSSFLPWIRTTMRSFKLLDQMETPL

[12] = DRUGMATRIX: Purinergic P2X radioligand binding (ligand: [3H] alpha, beta-Methylene-ATP); type: cell membranes, Oryctolagus cuniculus, New Zealand albino, Urinary bladder, Membrane; settings: Not Active = under 50% inhibition at 10 µM
[13] = target: 5-hydroxytryptamine receptor 6 (Homo sapiens, UniProt P50406); type: cell membranes, HeLa, Membrane; settings: hela; also: in other assays of this panel Not Active means under 50% inhibition at 10 µM
[14] = target: T3, Adenosine receptor A1 (Homo sapiens, UniProt P30542); type: cell membranes, CHO, Membrane; settings: cho
T3 sequence (P30542 whole entry): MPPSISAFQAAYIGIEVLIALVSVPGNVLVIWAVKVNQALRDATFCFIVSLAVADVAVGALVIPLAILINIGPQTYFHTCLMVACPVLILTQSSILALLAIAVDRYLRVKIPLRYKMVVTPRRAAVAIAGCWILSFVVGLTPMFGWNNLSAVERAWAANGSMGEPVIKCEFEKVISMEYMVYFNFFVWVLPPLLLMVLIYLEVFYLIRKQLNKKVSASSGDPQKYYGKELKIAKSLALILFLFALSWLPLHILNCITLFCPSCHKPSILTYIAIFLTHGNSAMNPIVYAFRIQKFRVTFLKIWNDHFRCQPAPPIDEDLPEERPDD

Sodium-dependent dopamine transporter, sequence (Q01959 whole entry): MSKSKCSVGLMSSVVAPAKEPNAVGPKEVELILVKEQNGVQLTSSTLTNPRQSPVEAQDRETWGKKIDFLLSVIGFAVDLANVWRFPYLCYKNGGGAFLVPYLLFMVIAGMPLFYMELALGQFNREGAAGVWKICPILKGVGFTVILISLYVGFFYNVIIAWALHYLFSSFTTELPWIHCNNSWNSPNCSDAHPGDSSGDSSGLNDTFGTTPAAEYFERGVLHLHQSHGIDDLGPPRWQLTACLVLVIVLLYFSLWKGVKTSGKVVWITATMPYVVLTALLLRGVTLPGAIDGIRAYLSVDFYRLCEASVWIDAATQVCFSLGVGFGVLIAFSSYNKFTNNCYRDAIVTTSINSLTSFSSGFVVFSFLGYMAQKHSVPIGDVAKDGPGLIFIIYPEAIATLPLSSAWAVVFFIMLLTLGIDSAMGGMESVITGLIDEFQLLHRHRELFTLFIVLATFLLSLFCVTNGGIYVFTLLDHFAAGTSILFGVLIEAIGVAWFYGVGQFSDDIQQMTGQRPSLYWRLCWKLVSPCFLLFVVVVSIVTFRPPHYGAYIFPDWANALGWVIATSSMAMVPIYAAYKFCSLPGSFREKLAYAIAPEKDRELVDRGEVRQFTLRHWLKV
C-C chemokine receptor type 5, sequence (P51681 whole entry): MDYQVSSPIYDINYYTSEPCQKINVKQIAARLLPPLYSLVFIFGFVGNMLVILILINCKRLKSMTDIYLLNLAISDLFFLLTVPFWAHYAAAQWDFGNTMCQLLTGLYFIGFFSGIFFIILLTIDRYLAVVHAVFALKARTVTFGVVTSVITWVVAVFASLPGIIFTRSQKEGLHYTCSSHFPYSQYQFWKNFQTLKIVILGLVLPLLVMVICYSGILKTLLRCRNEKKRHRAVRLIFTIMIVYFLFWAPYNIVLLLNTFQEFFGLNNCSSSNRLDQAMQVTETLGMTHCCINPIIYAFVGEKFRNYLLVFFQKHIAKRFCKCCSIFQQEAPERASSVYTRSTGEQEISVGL
Substance-P receptor, sequence (P25103 whole entry): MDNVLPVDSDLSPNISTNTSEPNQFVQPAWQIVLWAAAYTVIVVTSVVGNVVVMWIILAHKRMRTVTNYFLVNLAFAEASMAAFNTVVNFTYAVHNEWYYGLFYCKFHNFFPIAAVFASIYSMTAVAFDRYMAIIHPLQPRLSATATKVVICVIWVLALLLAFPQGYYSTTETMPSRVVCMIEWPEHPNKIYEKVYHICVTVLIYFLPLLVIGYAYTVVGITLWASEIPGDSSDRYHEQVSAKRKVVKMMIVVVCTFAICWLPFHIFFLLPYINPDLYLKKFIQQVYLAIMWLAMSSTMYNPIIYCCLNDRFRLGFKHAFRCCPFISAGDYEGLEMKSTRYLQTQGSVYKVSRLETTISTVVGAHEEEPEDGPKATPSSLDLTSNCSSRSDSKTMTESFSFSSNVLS
5-hydroxytryptamine receptor 6, sequence (P50406 whole entry): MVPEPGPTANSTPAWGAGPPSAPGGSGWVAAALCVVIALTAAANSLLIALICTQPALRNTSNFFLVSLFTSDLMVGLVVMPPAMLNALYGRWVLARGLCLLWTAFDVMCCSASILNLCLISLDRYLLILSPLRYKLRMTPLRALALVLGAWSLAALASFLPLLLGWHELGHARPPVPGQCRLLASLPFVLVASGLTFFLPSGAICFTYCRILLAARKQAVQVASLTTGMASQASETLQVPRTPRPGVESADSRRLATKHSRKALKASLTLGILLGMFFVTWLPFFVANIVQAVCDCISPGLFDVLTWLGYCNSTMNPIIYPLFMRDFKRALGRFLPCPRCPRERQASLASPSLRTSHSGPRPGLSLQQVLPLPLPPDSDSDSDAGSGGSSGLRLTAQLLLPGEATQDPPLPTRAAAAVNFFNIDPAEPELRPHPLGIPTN
Epidermal growth factor receptor, sequence (P00533 whole entry): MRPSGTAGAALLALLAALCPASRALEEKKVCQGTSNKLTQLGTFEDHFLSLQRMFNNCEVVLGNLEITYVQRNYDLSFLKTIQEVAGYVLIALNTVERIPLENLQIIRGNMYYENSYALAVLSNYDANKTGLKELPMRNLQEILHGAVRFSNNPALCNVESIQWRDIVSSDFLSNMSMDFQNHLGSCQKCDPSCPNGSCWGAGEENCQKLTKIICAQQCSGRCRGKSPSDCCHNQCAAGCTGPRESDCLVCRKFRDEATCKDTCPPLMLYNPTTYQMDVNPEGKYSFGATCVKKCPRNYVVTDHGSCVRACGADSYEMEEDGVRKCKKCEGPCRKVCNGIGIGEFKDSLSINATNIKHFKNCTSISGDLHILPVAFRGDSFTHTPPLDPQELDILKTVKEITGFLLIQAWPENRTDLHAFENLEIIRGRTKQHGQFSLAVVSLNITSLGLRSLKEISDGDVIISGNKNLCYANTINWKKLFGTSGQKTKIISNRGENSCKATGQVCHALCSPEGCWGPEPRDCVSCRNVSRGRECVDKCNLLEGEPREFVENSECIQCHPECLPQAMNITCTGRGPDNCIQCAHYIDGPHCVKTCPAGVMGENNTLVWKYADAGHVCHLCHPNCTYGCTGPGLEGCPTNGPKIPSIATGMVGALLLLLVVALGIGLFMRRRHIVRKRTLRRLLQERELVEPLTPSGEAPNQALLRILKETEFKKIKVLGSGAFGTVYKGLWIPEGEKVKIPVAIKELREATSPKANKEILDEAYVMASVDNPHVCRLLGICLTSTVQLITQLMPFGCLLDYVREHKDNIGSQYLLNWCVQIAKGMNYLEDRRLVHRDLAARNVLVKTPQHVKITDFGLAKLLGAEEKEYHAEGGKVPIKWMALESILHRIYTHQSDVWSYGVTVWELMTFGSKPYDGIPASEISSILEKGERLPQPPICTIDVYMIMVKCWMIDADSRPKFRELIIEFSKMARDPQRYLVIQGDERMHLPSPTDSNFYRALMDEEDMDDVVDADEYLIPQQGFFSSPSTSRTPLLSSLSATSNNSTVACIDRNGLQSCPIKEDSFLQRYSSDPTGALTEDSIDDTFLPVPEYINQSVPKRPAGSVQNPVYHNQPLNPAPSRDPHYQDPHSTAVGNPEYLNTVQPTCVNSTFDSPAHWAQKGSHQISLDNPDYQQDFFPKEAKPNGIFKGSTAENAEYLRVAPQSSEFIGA
Cannabinoid receptor 1, sequence (P21554 whole entry): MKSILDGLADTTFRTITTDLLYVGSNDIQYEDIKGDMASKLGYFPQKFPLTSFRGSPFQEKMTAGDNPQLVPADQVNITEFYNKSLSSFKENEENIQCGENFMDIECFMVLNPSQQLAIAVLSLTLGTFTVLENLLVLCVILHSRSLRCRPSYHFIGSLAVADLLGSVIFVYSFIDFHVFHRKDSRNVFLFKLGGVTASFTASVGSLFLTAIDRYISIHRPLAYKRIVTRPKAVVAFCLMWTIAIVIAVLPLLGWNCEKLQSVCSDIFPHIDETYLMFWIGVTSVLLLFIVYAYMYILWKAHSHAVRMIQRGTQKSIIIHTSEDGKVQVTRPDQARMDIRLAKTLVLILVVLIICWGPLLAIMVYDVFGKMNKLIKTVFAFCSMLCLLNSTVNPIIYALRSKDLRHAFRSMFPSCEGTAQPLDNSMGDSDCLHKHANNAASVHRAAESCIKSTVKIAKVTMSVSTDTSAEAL

| Compound | IC50 [1] | IC50 [2] | Ki [2] | IC50 [3] | Ki [3] | IC50 [4] | IC50 [5] | IC50 [6] | IC50 [7] | Ki [7] | IC50 [8] | IC50 [9] | IC50 [10] | IC50 [11] | IC50 [12] | Ki [12] | IC50 [13] | IC50 [14] | also measured |
| --- | --- | --- | --- | --- | --- | --- | --- | --- | --- | --- | --- | --- | --- | --- | --- | --- | --- | --- | --- |
| CC(/C=C1\SC(=S)N(CC(=O)O)C1=O)=C\c1ccccc1 | Not Active | Not Active | Not Active | Not Active | Not Active | Not Active | Not Active | Not Active | Not Active | Not Active | Not Active | Not Active | Not Active | Not Active | Not Active | Not Active | Not Active | Not Active | – |
| CCCCCCCCCc1ccc(O)cc1 [4-NONYLPHENOL] | Not Active | Not Active | Not Active | Not Active | Not Active | Not Active | Not Active | Not Active | Not Active | Not Active | – | Not Active | – | Not Active | Not Active | Not Active | Not Active | Not Active | pIC50 ([8]; read-out: IC50): 5.78; pKi ([8]; read-out: Ki): 5.88; pIC50 ([10]; read-out: IC50): 5.17; pKi ([10]; read-out: Ki): 5.59 |
| Cc1[nH]cnc1CN1CCc2c(c3ccccc3n2C)C1=O [ALOSETRON] | Not Active | Not Active | Not Active | Not Active | Not Active | Not Active | Not Active | Not Active | Not Active | Not Active | Not Active | Not Active | Not Active | Not Active | Not Active | Not Active | Not Active | Not Active | – |
| CC1(C)S[C@@H]2[C@H](NC(=O)[C@H](N)c3ccc(O)cc3)C(=O)N2[C@H]1C(=O)O [AMOXICILLIN] | Not Active | Not Active | Not Active | Not Active | Not Active | Not Active | Not Active | Not Active | Not Active | Not Active | Not Active | Not Active | Not Active | Not Active | Not Active | Not Active | Not Active | Not Active | – |
| N=C(N)NCCCCNC(=N)N.O=S(=O)(O)O [ARCAINE SULFATE] | Not Active | Not Active | Not Active | Not Active | Not Active | Not Active | Not Active | Not Active | Not Active | Not Active | Not Active | Not Active | Not Active | Not Active | Not Active | Not Active | Not Active | Not Active | – |
| CC[C@H](C)[C@H](N)C1=N[C@H](C(=O)N[C@@H](CC(C)C)C(=O)N[C@H](CCC(=O)O)C(=O)N[C@H](C(=O)N[C@H]2CCCCNC(=O)[C@H](CC(N)=O)NC(=O)[C@@H](CC(=O)O)NC(=O)[C@H](Cc3cnc[nH]3)NC(=O)[C@@H](Cc3ccccc3)NC(=O)[C@H]([C@@H](C)CC)NC(=O)[C@@H](CCCN)NC2=O)[C@@H](C)CC)CS1 [BACITRACIN] ({Ileψ(thiazoline)Cys}-L[dE]IK[dOrn]I[dF]H[dD]N; lactam 4-C) | Not Active | Not Active | Not Active | Not Active | Not Active | – | Not Active | Not Active | Not Active | Not Active | Not Active | Not Active | Not Active | Not Active | Not Active | Not Active | Not Active | Not Active | – |
| CC(=O)O[C@]1(C(C)=O)CC[C@H]2[C@@H]3C=C(Cl)C4=CC(=O)CC[C@]4(C)[C@H]3CC[C@@]21C [CHLORMADINONE ACETATE] | Not Active | Not Active | Not Active | Not Active | Not Active | Not Active | Not Active | Not Active | Not Active | Not Active | Not Active | Not Active | Not Active | Not Active | Not Active | Not Active | Not Active | Not Active | – |
| C[C@]12CCC(=O)C=C1CC[C@@H]1[C@@H]2C(=O)C[C@@]2(C)[C@H]1CC[C@]2(O)C(=O)CO [CORTISONE] | Not Active | Not Active | Not Active | Not Active | Not Active | Not Active | Not Active | Not Active | Not Active | Not Active | Not Active | Not Active | Not Active | Not Active | Not Active | Not Active | Not Active | Not Active | – |
| CC(=O)OCC(=O)[C@@]1(OC(C)=O)[C@@H](C)C[C@H]2[C@@H]3C[C@H](F)C4=CC(=O)C=C[C@]4(C)[C@@]3(F)[C@@H](O)C[C@@]21C [DIFLORASONE DIACETATE] | Not Active | Not Active | Not Active | Not Active | Not Active | Not Active | Not Active | Not Active | Not Active | Not Active | Not Active | Not Active | Not Active | Not Active | Not Active | Not Active | Not Active | Not Active | – |

— ChEMBL document CHEMBL1909046, “DrugMatrix in vitro pharmacology data”
